Source: patent publication US20220033434A1, “ANDROGEN RECEPTOR NUCLEIC ACIDS AND USES THEREOF” (Avidity Biosciences, Inc., priority 2016, published 2022)
In the oligonucleotide strings, read from the 5' end, every base follows the letter of its sugar. An asterisk marks phosphorothioate; unmarked linkages are phosphodiester. Other units and linkages are bracketed, terminal groups are in braces. A string of capitals states the bases alone. d = 2'-deoxy (DNA); m = 2'-O-methyl; f = 2'-fluoro

Experiments:
Type in all cases: cell-based, human
AR-SV(2) = assay: AR protein knock-down by Western blot after siRNA transfection in 22RV1 cells: AR-SV(2); details: 5 nM siRNA, 50 h post transfection, compared to controls
Outline: (§1)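 Prostate lines 22RV1 and LNCaP are transfected with siRNA at 5 nM final and collected after 50 h or 72 h, respectively. Equal protein loads (30 ug) are blotted for AR via an N-terminal epitope common to splice variants.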

AR-SV(3) = assay: AR protein knock-down by Western blot after siRNA transfection in 22RV1 cells: AR-SV(3); details: 5 nM siRNA, 50 h post transfection, compared to controls
Outline: as §1

AR mRNA [1] = assay: AR mRNA IC50 and maximal KD, siRNA at various concentrations, 22RV1 cells, qPCR probes exon junctions 1/2 or 4/5
Description: (§2) Focusing on siRNAs targeting AR sequences exons 1 and 2, the ability of these siRNAs to downregulate AR mRNA at a concentration of 5 nM was determined by RT-qPCR. For this purpose, siRNAs were transfected into 22RV1 and LNCaP cells as described above. At 24 hrs post-transfection, RNA was harvested from cells using a Qiagen RNeasy® Plus Mini Kit or Stratec InviTrap® RNA Cell HTS96 kit. The concentration of each isolated RNA was determined via A260 measurement using a NanoDrop spectrophotometer. RNA samples were reverse transcribed to cDNA using the High Capacity RNA to cDNA Kit (Life Technologies) according to the manufacturer's instructions. cDNA samples were then quantified by qPCR using AR-specific probes and results normalized to either endogenous β-actin or PPIB using the standard 2^−ΔΔCt method. These studies identified 6 siRNAs that at a concentration of 5 nM down regulated AR mRNA in 22RV1 and LNCaP cells by more than 80% compared to controls (Table 4).
(§3) To determine the concentration required to reduce AR expression by 50% (IC50) and maximal KD activity, these siRNAs were transfected into LNCaP, C4-2, and 22RV1 cells at various concentrations starting at 100 nM. C4-2 (MD Anderson) is an LNCaP subline that has been selected for resistance against clinically used AR antagonists (Wu et al., “Derivation of androgen-independent human LNCaP prostatic cancer cell sublines: Role of bone stromal cells,” International J Cancer 1994; 57:406-412). Cells were harvested 48 h post-transfection; RNA was prepared and analyzed as stated above. For these experiments, specific AR qPCR probes located at the exon junctions 1/2 or 4/5 were used that recognize most mRNAs of relevant AR isoforms or primarily full length AR mRNA, respectively. All tested siRNAs lowered AR expression with subnanomolar potency to 70% in 22RV1 cells and to ≥90% in LNCaP and C4-2 cells (Table 5). […]

AR FL(1) = assay: AR protein knock-down by Western blot after siRNA transfection in 22RV1 cells: AR FL(1); details: 5 nM siRNA, 50 h post transfection, compared to controls
Outline: as §1

AR mRNA [2] = assay: AR mRNA downregulation by RT-qPCR at 5 nM siRNA in LNCaP cells; details: 24 hrs post-transfection
Description: as §2

AR mRNA [3] = assay: AR mRNA IC50 and maximal KD, siRNA at various concentrations, C4-2 cells, qPCR probes exon junctions 1/2 or 4/5
Description: as §2, §3

AR mRNA [4] = assay: AR mRNA downregulation by RT-qPCR at 5 nM siRNA in 22RV1 cells; details: 24 hrs post-transfection
Description: as §2

[5] = system: AR FL (full length AR T877A LBD mutant); assay: AR protein knock-down by Western blot after siRNA transfection in LNCaP cells: AR FL; details: 5 nM siRNA, 72 h post transfection, compared to controls
Outline: as §1

AR mRNA [6] = assay: AR mRNA IC50 and maximal KD, siRNA at various concentrations, LNCaP cells, qPCR probes exon junctions 1/2 or 4/5
Description: as §2, §3

[7] = AR qPCR probe at exon junction 1/2, 48 h post-transfection
[8] = AR qPCR probe at exon junction 1/2, 48 h post-transfection, read-out: IC50 (nM), 22RV1, Exon 1/2
[9] = AR qPCR probe at exon junction 4/5, 48 h post-transfection
[10] = AR qPCR probe at exon junction 4/5, 48 h post-transfection, read-out: IC50 (nM), 22RV1, Exon 4/5
[11] = AR qPCR probe at exon junction 1/2, 48 h post-transfection, read-out: IC50 (nM), C4-2, Exon 1/2
[12] = AR qPCR probe at exon junction 4/5, 48 h post-transfection, read-out: IC50 (nM), C4-2, Exon 4/5
[13] = AR qPCR probe at exon junction 1/2, 48 h post-transfection, read-out: IC50 (nM), LNCaP, Exon 1/2
[14] = AR qPCR probe at exon junction 4/5, 48 h post-transfection, read-out: IC50 (nM), LNCaP, Exon 4/5

| Substance | % KD AR Protein 22RV1 AR-SV(2) (AR-SV(2)) [%] | % KD AR Protein 22RV1 AR-SV(3) (AR-SV(3)) [%] | max KD (%), 22RV1, Exon 1/2 (AR mRNA [1]; [7]) [%] | IC50 (AR mRNA [1]; [8]) [nM] | max KD (%), 22RV1, Exon 4/5 (AR mRNA [1]; [9]) [%] | IC50 (AR mRNA [1]; [10]) [nM] | % KD AR Protein 22RV1 AR FL(1) (AR FL(1)) [%] | % KD AR RNA LNCaP (AR mRNA [2]) [%] | max KD (%), C4-2, Exon 1/2 (AR mRNA [3]; [7]) [%] | IC50 (AR mRNA [3]; [11]) [nM] | max KD (%), C4-2, Exon 4/5 (AR mRNA [3]; [9]) [%] | IC50 (AR mRNA [3]; [12]) [nM] | % KD AR RNA 22RV1 (AR mRNA [4]) [%] | % KD AR Protein LNCaP AR FL [5] [%] | max KD (%), LNCaP, Exon 1/2 (AR mRNA [6]; [7]) [%] | IC50 (AR mRNA [6]; [13]) [nM] | max KD (%), LNCaP, Exon 4/5 (AR mRNA [6]; [9]) [%] | IC50 (AR mRNA [6]; [14]) [nM] |
| --- | --- | --- | --- | --- | --- | --- | --- | --- | --- | --- | --- | --- | --- | --- | --- | --- | --- | --- |
| XD-01827: AR siRNA with chemical modification, Id # 2819; sense X05349 (SEQ ID NO: 179), antisense X05350 (SEQ ID NO: 180) (sense mUmGfGmGfUmGfUmCfAmCfUmAfUmGfGmAfGmCfUdT*dT; antisense fAfGmCfUmCfCmAfUmAfGmUfGmAfCmAfCmCfCmAdT*dT) | 92 | 93 | 38.7 | 0.108 | 54.0 | 0.068 | 89 | 86 | 83.2 | 0.052 | 85.7 | 0.052 | 89 | 90 | 81.7 | 0.053 | 84.5 | 0.06 |
| XD-01826: AR siRNA with chemical modification, Id # 2817; sense X05347 (SEQ ID NO: 177), antisense X05348 (SEQ ID NO: 178) (sense mUmCfUmGfGmGfUmGfUmCfAmCfUmAfUmGfGmAfGdT*dT; antisense fCfUmCfCmAfUmAfGmUfGmAfCmAfCmCfCmAfGmAdT*dT) | 92 | 93 | 52.4 | 0.146 | 64.8 | 0.057 | 87 | 81 | 86.5 | 0.049 | 87.0 | 0.046 | 89 | 91 | 84.6 | 0.041 | 86.0 | 0.035 |
| XD-01825: AR siRNA with chemical modification, Id # 2814; sense X05345 (SEQ ID NO: 175), antisense X05346 (SEQ ID NO: 176) (sense mGmCfUmUfCmUfGmGfGmUfGmUfCmAfCmUfAmUfGdT*dT; antisense fCfAmUfAmGfUmGfAmCfAmCfCmCfAmGfAmAfGmCdT*dT) | 93 | 95 | 53.5 | 0.067 | 60.7 | 0.055 | 90 | 82 | 83.5 | 0.024 | 84.6 | 0.026 | 91 | 91 | 82.5 | 0.02 | 84.9 | 0.018 |
| XD-01828: AR siRNA with chemical modification, Id # 2820; sense X05351 (SEQ ID NO: 181), antisense X05352 (SEQ ID NO: 182) (sense mGmGfGmUfGmUfCmAfCmUfAmUfGmGfAmGfCmUfCdT*dT; antisense fGfAmGfCmUfCmCfAmUfAmGfUmGfAmCfAmCfCmCdT*dT) | 89 | 92 | 51.7 | 0.042 | 50.7 | 0.028 | 80 | 84 | 81.1 | 0.022 | 77.7 | 0.02 | 96 | 90 | 84.8 | 0.023 | 81.7 | 0.028 |
